Laboratory results published in publication PMC11469249, “Enzyme‐Triggered L‐α/D‐Peptide Hydrogels as a Long‐Acting Injectable Platform for Systemic Delivery of HIV/AIDS Drugs” (Advanced Healthcare Materials, 2023).
Where a SMILES comes first, the peptide text is derived from it. [ ]: non-standard residue; d: D form. The star is where a group is joined. X1 = Cc1cn([C@H]2C[C@H](N=[N+]=[N-])[C@@H](COC(=O)CCC(=O)*)O2)c(=O)[nH]c1=O; Acetyl(2-naphthyl) = O=C(Cc1ccc2ccccc2c1)*; pY = N[C@@H](Cc1ccc(OP(=O)(O)O)cc1)C(=O)O

Tests used:
NCTC 929 (ATCC CCL 1) = assay: MTS viability assay, solubilized peptides; type: cell-based, murine; conditions: 500 µM; at each timepoint (6, 24, 72 h)
Protocol: Cell toxicity was assessed above and below critical gelation concentrations utilizing the International Standard (ISO) murine fibroblast subcutaneous connective tissue cell line NCTC 929 (ATCC CCL 1).^[ [51] ^]
Preparation of tissue cell cytotoxicity assays: Cells were cultured in Minimum Essential Medium (MEM) containing phenol red, Earle's Salts, and L‐glutamine supplemented with 10% fetal bovine serum and 1 mM sodium pyruvate (Invitrogen, Paisley, UK) and grown at 37 °C/5% CO2. Cells were subcultured at 80–90% confluency via removal of media, washing with sterile PBS, and detachment of cell monolayers with 0.05% trypsin/0.53 mM EDTA.4Na solution (Invitrogen, Paisley, UK). Cells were cultured until at least the third passage, seeded at 1 × 10^4 cells per well in sterile 96‐well microtiter plates for 6 h, 24 h, and 56 day treatment times and seeded at 5 × 10^3 cells per well for 72 h treatment times. […]
Following exposure to peptide after 6, 24 and 72 h, cell viability was assessed using a MTS based CellTiter 96 AQueous One Solution Cell Proliferation Assay (Promega, Southampton, UK). Absorption was measured at 490 nm using a Tecan Sunrise plate reader (Tecan UK Ltd, Reading, UK). Cell viability was calculated using Equation (2) below and reported as the mean of nine replicates.

proteinase K = proteinase K (Parengyodontium album, UniProt P06873); assay: Biostability against proteinase K; type: in vitro ADME; conditions: after 672 h (28 days); 0.02 w/v% peptide in PBS; proteinase K 3 U/mL; 37 °C; RP-HPLC peak area vs t = 0; mean n = 3
Chain of proteinase K (P06873 106-384): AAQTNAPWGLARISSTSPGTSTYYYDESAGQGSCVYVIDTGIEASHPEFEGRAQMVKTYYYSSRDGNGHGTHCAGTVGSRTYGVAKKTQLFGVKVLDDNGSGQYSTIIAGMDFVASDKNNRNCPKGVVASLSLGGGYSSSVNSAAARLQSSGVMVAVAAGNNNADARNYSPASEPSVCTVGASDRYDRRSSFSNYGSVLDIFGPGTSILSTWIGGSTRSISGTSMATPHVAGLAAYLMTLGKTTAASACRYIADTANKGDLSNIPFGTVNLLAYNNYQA
Protocol: Peptides were tested for stability at multiple time points over 28 days by incubation with the broad‐spectrum protease proteinase K. Peptides were tested in solution form at concentrations below their critical gelation concentrations (0.02 w/v%) to reduce any resistance to proteolysis offered by the hydrogel matrix itself.^[ [76] ^] 1 mL aliquots of peptide dissolved in PBS buffer were added to Eppendorf tubes. Proteinase K was added at a concentration of 3 U/mL and incubated at 37 °C. Then 100 µL samples were removed at pre‐determined time points (t = 0, 0.5, 1, 3, 6, 24, 72, 168, 336, 504, and 672 h) and added to 50 µL of concentrated acetic acid to inactivate proteinase K enzyme. Then 100 µL samples were then analyzed via RP‐HPLC. The amount of peptide remaining at each time point was calculated based on the area of the peak corresponding to the peptide and presented as a percentage of the area of this peak at t = 0 (Equation (1)). (1) %Peptideremaining=Areaofpeptidepeakattesttimepoint/[Areaofpeptidepeakatt=0]×100

[1] = tested on: alkaline phosphatase enzyme; assay: Rheological time sweeps, gelation time after alkaline phosphatase addition; type: physicochemical; conditions: time sweep, 2 w/v%, 2 U alkaline phosphatase, 37 °C; for G′ and G″ cross (gelation time): PP50/S parallel plate, 0.5 mm gap
Protocol: The gelation of peptides and peptide‐antiretroviral conjugates was tested over a range of concentrations (0.1–2 w/v%) in pH 7.4 phosphate buffered saline (PBS). The ability of alkaline phosphatase enzyme to trigger gelation was studied by adding 2 µL of 2 U (1000 U/mL) solution to the dissolved peptide‐PBS mixtures. Hydrogel formulation steps are outlined fully in Table S2, Supporting Information. A vial inversion assay was used as a screening tool to assess gel propensity, whereby peptide‐PBS‐alkaline phosphatase mixtures were inverted within glass HPLC vials. Gel formation and the mechanical strength of gels were definitively characterized via oscillatory rheology using an Anton Paar MCR302 rheometer (Anton Paar, St Albans, UK). A vane and cup geometry was used to perform frequency and strain sweeps. Gels were formulated as 2 mL volumes in 7 mL Sterilin vials as previously described.^[ [39b] ^] Frequency sweeps were performed at 37 °C from 1–100 rad/s at a strain of 0.5%. Amplitude sweeps were performed at 37 °C, 2.5 rad/s and a strain of 0.01–1000%. Flow point or breakage strain, where G″ ≥ G′ within the strain sweeps, was used as a measurement of gel strength. Time sweeps were performed using a sand blasted parallel plate PP50/S system at 37 °C with a 0.5 mm measuring gap over a period of 24 h. Loss and storage moduli, critical strain, viscosity, and oscillatory time sweeps were performed to relate rheological changes with time and potential for rapid in situ hydrogel implant formation upon exposure to 2 U phosphatase enzyme.
Table S3. Gelation times for peptide hydrogels upon addition of alkaline phosphatase enzyme derived from data above in Figure S12 and Figure 3 c-d.
Peptide G′ and G″ G′ > 2x G′′ Time for […]
d) NapFFK(AZT)Y-OH 8.5 min 9 min 88.3 min

[2] = Small angle neutron scattering (SANS) of hydrogels; type: physicochemical; conditions: 2 w/v% hydrogels in D2O; flexible cylinder elliptical model with Power Law
Protocol: SANS was used to determine the morphology of the structures underpinning the hydrated peptide gel network. Both drug and non‐drug conjugated forms of peptides L‐α (NapFFKY‐OH and NapFFKYG‐OH) and D‐enantiomer (NapffkY‐OH and NapffkYG‐OH) were studied. Peptide hydrogels (2 w/v%) were formulated as described (Table S2, Supporting Information) in 2 mm path length UV spectrophotometer grade quartz cuvettes (Hellma) but using deuterated water (D2O) rather than PBS. SANS measurements were performed using the D11 instrument at the Institut Laue – Langevin, Grenoble, France. Scattering from the primary assembled structures (most commonly fibers) and the network were collected over a wide Q range (Q = 4πsin(θ/2)/λ) of 0.001 to 0.5 Å^−1 and three sample‐detector distances (1.4, 8, and 39 m).^[ [44] ^] Peptide samples were placed in a temperature‐controlled sample rack during measurements. The datasets obtained were reduced to 1D scattering curves of intensity versus Q using the facility provided software. Scattering from D2O controls, empty cuvette, and electronic background were subtracted from the data and the full detector images were normalized. SasView software version 5.0.4 was used to fit instrument‐independent data to several models with and without a power law applied, including a cylinder, an elliptical cylinder, a flexible cylinder, a flexible elliptical cylinder and hollow cylinders. […]

NCTC 929 cells = assay: 56 day indirect toxicity of hydrogels, LDH; type: cell-based, murine; conditions: 2 w/v% hydrogel supernatant; 6 h exposure; n = 3
Protocol: Biocompatibility at the highest gel concentration of 2.0 w/v% was examined by measuring cell metabolic activity (MTS) and cytotoxicity (LDH release) in the presence of media containing leached degradation products from the peptide gels over a period of 56 days.^[ [77] ^] Following the formation of gels as outlined in Table S2, Supporting Information, 2 mL of media was added on top of each gel (1 mL of 2 w/v% gel) within a 10 mL glass vial and incubated at 37 °C and 5% CO2. For each time point in the 56 day study, NCTC 929 cells at 80–90% confluency were seeded into the wells of a 96 well plate at a concentration of 1 × 10^4 cells per well and incubated for a period of 24 h. One set of wells was left untreated and acted as the negative control, that is, metabolic activity of cells with no peptide. In the case of the LDH indirect toxicity assay, the media was removed from the cells before adding 50 µL of fresh media and 50 µL of the supernatant from the 2.0 w/v% gels at specific time points: 1, 3, 7, 14, 21, 28, and 56 days and incubated for 6 h before adding the test reagent as described above. A high LDH release control and a low LDH release control were created as before. Each experiment was performed in triplicate. The percentage cytotoxicity was calculated using Equation (2) above. […] The metabolic activity was calculated using Equation (1) above.

Compound: Cc1cn([C@H]2C[C@H](N=[N+]=[N-])[C@@H](COC(=O)CCC(=O)NCCCC[C@H](NC(=O)[C@H](Cc3ccccc3)NC(=O)[C@H](Cc3ccccc3)NC(=O)Cc3ccc4ccccc4c3)C(=O)N[C@@H](Cc3ccc(OP(=O)(O)O)cc3)C(=O)O)O2)c(=O)[nH]c1=O [NapFFK(AZT)Y(p)-OH] ({Acetyl(2-naphthyl)}-FFK(X1)[pY]-OH)
- reduction in cell metabolic activity (MTS) (NCTC 929 (ATCC CCL 1)): 40–51%

Compound: Cc1cn([C@H]2C[C@H](N=[N+]=[N-])[C@@H](COC(=O)CCC(=O)NCCCC[C@H](NC(=O)[C@H](Cc3ccccc3)NC(=O)[C@H](Cc3ccccc3)NC(=O)Cc3ccc4ccccc4c3)C(=O)N[C@@H](Cc3ccc(OP(=O)(O)O)cc3)C(=O)NCC(=O)O)O2)c(=O)[nH]c1=O [NapFFK(AZT)Y(p)G-OH]
- zidovudine blood plasma concentrations for 35 days (subcutaneous administration, within IC50 range): 30 to 130 ng/mL

Compound: NCCCC[C@H](NC(=O)[C@H](Cc1ccccc1)NC(=O)[C@H](Cc1ccccc1)NC(=O)Cc1ccc2ccccc2c1)C(=O)N[C@@H](Cc1ccc(OP(=O)(O)O)cc1)C(=O)O [NapFFKY(p)-OH, phosphorylated (naphthalene‐2‐ly)‐acetyl‐diphenylalanine‐lysine‐tyrosine‐OH] (HELM PEPTIDE1{[O=C(Cc1ccc2ccccc2c1)[*:2]].F.F.K.[O=C(O)[C@H](Cc1ccc(OP(=O)(O)O)cc1)N[*:1]]}$$$$V2.0)
- % peptide remaining (proteinase K): 85.4%

Compound: NCCCC[C@H](NC(=O)[C@H](Cc1ccccc1)NC(=O)[C@H](Cc1ccccc1)NC(=O)Cc1ccc2ccccc2c1)C(=O)N[C@@H](Cc1ccc(OP(=O)(O)O)cc1)C(=O)NCC(=O)O [NapFFKY(p)G-OH]
- % peptide remaining (proteinase K): 91.9%

Compound: Cc1cn([C@H]2C[C@H](N=[N+]=[N-])[C@@H](CO)O2)c(=O)[nH]c1=O [zidovudine, reference compound]
- time after which plasma zidovudine is undetectable (zidovudine intravenous control): 6 h

Compound: NapFFKY-OH [hydrogel-forming peptide after phosphatase removal of the phosphate group]
- G′ > 2x G″ [1]: 9.67 min
- Time for stable G′ [1]: 68.3 min
- G′ and G″ cross (gelation time) [1]: 8.58 min
- fiber radius [2]: 1.495 nm

Compound: NapFFKYG-OH [hydrogel-forming L-α peptide with glycine spacer]
- LDH cell toxicity, indirect, after 21 days (NCTC 929 cells): 23.2%
- LDH cell toxicity, indirect, after 56 days (NCTC 929 cells): 37%
- G′ > 2x G″ [1]: 7.75 min
- Time for stable G′ [1]: 65.7 min
- G′ and G″ cross (gelation time) [1]: 5.92 min
- fiber radius [2]: 2.038 nm
